{
  "source": "paper PMC3822589",
  "about": "(Journal of Cellular and Molecular Medicine, 2013)",
  "key": {"[1]": {"system": "P-STAT5 in BA/F3-EpoR-Jak2V617F cells", "assay": "Western blot of phospho-STAT5 in BA/F3-EpoR-Jak2V617F cells", "assay_type": "cell-based, murine", "conditions": "2.5 μM, 3 hrs"}, "[2]": {"system": "Jak2V617F in γ2A-FRT-TI-Jak2V617F/STAT3-YFP cells", "assay": "STAT3-YFP translocation assay", "assay_type": "cell-based", "conditions": "read-out: IC50 values, STAT3-YFP translocation assay"}, "[3]": {"system": "Jak2V617F in HEK-V617F-STAT-Rep. cells", "assay": "pSTAT-ZsGreen reporter gene assay", "assay_type": "cell-based", "conditions": "24 h, read-out: IC50 values, STAT-reporter gene assay"}, "[4]": {"system": "Jak2V617F phosphorylation (P-Jak2) in HEL cells", "assay": "Western blot of phospho-Jak2 in HEL cells", "assay_type": "cell-based, human", "conditions": "0.5, 1 or 5 μM, 3 hrs"}, "[5]": {"system": "Phospho-STAT5 (P-STAT5) levels in HEL cells (Jak2V617F)", "assay": "Western blot of phospho-STAT5 in HEL cells", "assay_type": "cell-based, human", "conditions": "for IC50: mean ± SD"}, "[6]": {"system": "γ2A-FRT-TI-Jak2V617F/STAT3-YFP cells", "assay": "Nuclei size by confocal imaging and Cell Profiler", "assay_type": "cell-based", "conditions": "24 hrs; Cell Profiler"}, "[7]": {"system": "P-STAT5 in UKE-1 cells (Jak2V617F)", "assay": "Western blot of phospho-STAT5 in UKE-1 cells", "assay_type": "cell-based", "conditions": "2.5 μM, 3 hrs"}, "Jak2": {"biological_target": "Jak2 (Homo sapiens, UniProt O60674)", "sequence (O60674 whole entry)": "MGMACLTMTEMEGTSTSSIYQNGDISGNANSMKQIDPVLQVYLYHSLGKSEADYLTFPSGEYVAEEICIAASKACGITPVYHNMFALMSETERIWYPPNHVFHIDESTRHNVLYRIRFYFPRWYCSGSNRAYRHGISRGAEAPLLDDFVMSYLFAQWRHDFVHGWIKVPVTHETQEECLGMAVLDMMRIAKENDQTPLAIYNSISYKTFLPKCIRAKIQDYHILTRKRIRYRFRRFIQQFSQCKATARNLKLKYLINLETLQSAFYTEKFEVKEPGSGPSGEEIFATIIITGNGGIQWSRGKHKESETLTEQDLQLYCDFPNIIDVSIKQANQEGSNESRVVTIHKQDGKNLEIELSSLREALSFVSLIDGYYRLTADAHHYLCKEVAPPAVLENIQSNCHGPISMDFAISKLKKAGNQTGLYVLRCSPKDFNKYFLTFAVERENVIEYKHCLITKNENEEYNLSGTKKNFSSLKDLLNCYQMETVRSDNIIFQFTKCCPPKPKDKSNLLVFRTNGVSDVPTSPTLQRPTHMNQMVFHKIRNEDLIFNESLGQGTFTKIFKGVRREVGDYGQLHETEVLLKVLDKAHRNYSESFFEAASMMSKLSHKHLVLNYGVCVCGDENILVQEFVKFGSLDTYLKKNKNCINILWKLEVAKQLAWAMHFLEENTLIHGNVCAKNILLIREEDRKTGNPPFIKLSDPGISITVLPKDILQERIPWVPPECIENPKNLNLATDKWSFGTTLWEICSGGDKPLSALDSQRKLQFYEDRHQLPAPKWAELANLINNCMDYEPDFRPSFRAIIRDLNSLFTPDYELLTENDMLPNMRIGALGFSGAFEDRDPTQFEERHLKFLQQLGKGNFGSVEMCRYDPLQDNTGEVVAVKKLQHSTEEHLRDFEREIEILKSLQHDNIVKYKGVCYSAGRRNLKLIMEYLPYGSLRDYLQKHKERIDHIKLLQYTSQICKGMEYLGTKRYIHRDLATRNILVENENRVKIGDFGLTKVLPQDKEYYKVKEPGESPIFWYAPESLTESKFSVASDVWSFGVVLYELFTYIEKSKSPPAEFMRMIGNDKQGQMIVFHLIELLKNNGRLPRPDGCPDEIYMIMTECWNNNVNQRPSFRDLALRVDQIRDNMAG", "assay": "Jak2 in vitro kinase assay", "assay_type": "biochemical", "conditions": "Caliper versus literature (Figure S5B)"}, "HEL cells": {"system": "HEL cells", "assay": "Cell proliferation assay", "assay_type": "cell-based, human"}},
  "note": "Where two headings read alike, the source gives them in different places.",
  "data": [
    {"smiles": "N#CCNC(=O)c1ccc(-c2ccnc(Nc3ccc(N4CCOCC4)cc3)n2)cc1", "note": "[CYT387]", "values": [
      {"measurement": "effect on phosphorylation of STAT5 (Western blot)", "setting": "[1]", "result": "efficiently decreased"},
      {"measurement": "IC50", "setting": "[2]", "result": "459 ± 126", "unit": "nM"},
      {"measurement": "IC50", "setting": "[3]", "result": "794 ± 7", "unit": "nM"},
      {"measurement": "effect on phosphorylation of Jak2", "setting": "[4]", "result": "increased phosphorylation of Jak2"},
      {"measurement": "effect on phosphorylation of STAT5 (Western blot)", "setting": "[5]; HEL cells, 0.5, 1 or 5 μM, 3 hrs", "result": "showed the same effects but were less efficient"},
      {"measurement": "IC50", "setting": "[5]; Homo sapiens, HEL, read-out: IC50 values, WB (P-STAT5), HEL cells", "result": "~600", "unit": "nM"},
      {"measurement": "IC50", "setting": "[5]; read-out: IC50 values, WB (P-STAT5), HEL cells", "result": "633 ± 90", "unit": "nM"},
      {"measurement": "concentration at which nuclei size increases", "setting": "[6]", "result": "did not have this effect"},
      {"measurement": "effect on phosphorylation of STAT5 (Western blot)", "setting": "[7]", "result": "efficiently decreased"},
      {"measurement": "divergence between own and published in vitro kinase assay IC50", "setting": "Jak2", "result": "greater than 10 fold"},
      {"measurement": "effect on proliferation of HEL cells", "setting": "HEL cells; 0.3 or 1 μM, 72 hrs", "result": "showed the same effects but were less efficient"},
      {"measurement": "IC50", "setting": "HEL cells; Homo sapiens, HEL, 72 h, read-out: IC50 values, Proliferation assay", "result": "1180 ± 413", "unit": "nM"}
    ]}
  ]
}
